Literature values, collected in patent publication US20130195827A1, “NUTRIGENOMIC METHODS TO OVERCOME CARBOHYDRATE BINGEING AND OVEREATING” (priority 2011, published 2013).

Legend:
lipolysis = settings: in vitro, p<0.01

Compound | basal rate of lipolysis (lipolysis) | increase of leptin secretion (leptin secretion)
C[C@]12CCC(=O)C=C1CC[C@@H]1[C@@H]2[C@@H](O)C[C@@]2(C)[C@H]1CC[C@]2(O)C(=O)CO [cortisol] | significantly reduced | 
Insulin: hormone insulin |  | 25%
